Here are results for eight compounds from the RepoRT retention time repository (doi:10.1016/j.jchromb.2020.122105).

Molecules are shown by their SMILES.

Details in all cases: stereoisomer not certain
Series [1] can be described thus: RP, Waters CORTECS T3, 100 × 2.1 mm, 2.7 µm, 0.3 mL/min, estimated dead time 0.73 min; A: water + 0.1% formic acid, pH 3; B: methanol + 0.1% formic acid, pH 3; gradient (min/%B) 0/5 5/5 25/100 30/100 30.1/5 35/5.
Series [2] can be described thus: RP, Waters CORTECS T3, 100 × 2.1 mm, 2.7 µm, 0.3 mL/min, estimated dead time 0.73 min; A: water + 0.1% formic acid, pH 3; B: methanol + 0.1% formic acid, pH 3; gradient (min/%B) 0/0 5/0 25/100 30/100 30.1/0 35/0.
A short description of series [3]: RP, Waters CORTECS T3, 100 × 2.1 mm, 2.7 µm, 0.2 mL/min, estimated dead time 1.1 min; A: water + 0.1% formic acid, pH 3; B: methanol + 0.1% formic acid, pH 3; gradient (min/%B) 0/0 1/0 6/5 30/100 35/100 35.1/0 40/0.
The nature of series [4]: RP, Waters CORTECS T3, 100 × 2.1 mm, 2.7 µm, 0.1 mL/min, estimated dead time 2.2 min; A: water + 0.1% formic acid, pH 3; B: methanol + 0.1% formic acid, pH 3; gradient (min/%B) 0/0 1/0 6/5 30/100 35/100 35.1/0 40/0.
The nature of series [5]: RP, Waters CORTECS T3, 100 × 2.1 mm, 2.7 µm, 0.15 mL/min, estimated dead time 1.5 min; A: water + 0.1% formic acid, pH 3; B: methanol + 0.1% formic acid, pH 3; gradient (min/%B) 0/0 1/0 6/5 30/100 35/100 35.1/0 40/0.
Series [6] can be described thus: RP, Waters CORTECS T3, 100 × 2.1 mm, 2.7 µm, 0.3 mL/min, estimated dead time 0.73 min; A: water + 0.1% formic acid, pH 3; B: methanol + 0.1% formic acid, pH 3; gradient (min/%B) 0/0 1/0 6/5 30/100 35/100 35.1/0 40/0.
Series [7] can be described thus: RP, Waters CORTECS T3, 100 × 2.1 mm, 2.7 µm, 0.25 mL/min, estimated dead time 0.88 min; A: water + 0.1% formic acid, pH 3; B: methanol + 0.1% formic acid, pH 3; gradient (min/%B) 0/0 1/0 6/5 30/100 35/100 35.1/0 40/0.
Series [8] can be described thus: RP, Waters CORTECS T3, 100 × 2.1 mm, 2.7 µm, 0.1 mL/min, estimated dead time 2.2 min; A: water + 0.1% formic acid, pH 3; B: methanol + 0.1% formic acid, pH 3; gradient (min/%B) 0/5 5/5 25/95 25.1/100 35/100 35.1/5 45/5.
Series [9] is described as follows: RP, Waters CORTECS T3, 100 × 2.1 mm, 2.7 µm, 0.3 mL/min, estimated dead time 0.73 min; A: water + 0.1% formic acid, pH 3; B: methanol + 0.1% formic acid, pH 3; gradient (min/%B) 0/5 5/5 25/95 25.1/100 35/100 35.1/5 45/5.
Series [10] is described as follows: RP, Waters ACQUITY UPLC BEH C18, 100 × 2.1 mm, 1.7 µm, 0.1 mL/min, estimated dead time 2.2 min; A: water + 0.1% formic acid, pH 3; B: methanol + 0.1% formic acid, pH 3; gradient (min/%B) 0/5 5/5 25/100 30/100 30.1/5 35/5.
Series [11] in a line: RP, Waters CORTECS T3, 100 × 2.1 mm, 2.7 µm, 0.2 mL/min, estimated dead time 1.1 min; A: water + 0.045% formic acid + 0.11% ammonium hydroxide, pH 7; B: methanol; gradient (min/%B) 0/5 5/5 25/95 25.1/100 35/100 35.1/5 45/5.
Series [12] can be described thus: RP, Waters ACQUITY UPLC BEH C18, 100 × 2.1 mm, 1.7 µm, 0.1 mL/min, estimated dead time 2.2 min; A: water + 0.1% formic acid, pH 3; B: methanol + 0.1% formic acid, pH 3; gradient (min/%B) 0/5 5/5 25/95 25.1/100 35/100 35.1/5 45/5.
Assay in series [13]: as above
The source holds these as a separate data set.

Series [14] in a line: RP, Waters ACQUITY UPLC BEH C18, 100 × 2.1 mm, 1.7 µm, 0.1 mL/min, estimated dead time 2.2 min; A: water + 0.045% formic acid + 0.11% ammonium hydroxide, pH 7; B: methanol; gradient (min/%B) 0/5 5/5 25/95 25.1/100 35/100 35.1/5 45/5.
Series [15] can be described thus: RP, Waters ACQUITY UPLC BEH C18, 100 × 2.1 mm, 1.7 µm, 0.2 mL/min, estimated dead time 1.1 min; A: water + 0.025% formic acid + 20 mM ammonium acetate + 0.055% ammonium hydroxide, pH 7; B: methanol; gradient (min/%B) 0/5 5/5 25/100 30/100 30.1/5 35/5.
A short description of series [16]: RP, Thermo Scientific Hypercarb, 150 × 2.1 mm, 5 µm, 0.1 mL/min, estimated dead time 3.3 min; A: water + 0.1% formic acid, pH 3; B: methanol + 0.1% formic acid, pH 3; gradient (min/%B) 0/5 5/5 20/100 35/100 35.1/5 45/5.

Consider `CC12CCC(=O)C=C1CCC1C2C(=O)CC2(C)C1CCC2(O)C(=O)CO` (configuration not stated) [CORTISONE], for which the LC retention time is 16.3 min in [1]; 16.9 min in series [2]; 20.2 min in [3]; 18 min in series [4]; 21.4 min in [5]; 18.9 min in [6]. For the same compound, the LC retention time was 19.5 min in [7]; 21 min in series [8]; 16.7 min in [9]; 20.5 min in series [10]; 18 min in series [11]; 21 min in [12]. Also, the LC retention time in series [13] is 21 min; in series [14] it was 21 min; in [15], 17.6 min.

As to `CC12CCC(=O)C=C1CCC1C2C(O)CC2(C)C1CCC2(O)C(=O)CO` (configuration not stated) [CORTISOL], the LC retention time in [1] was 16.7 min; in series [2], 17.3 min; in series [3], 20.8 min; in [4], 18.5 min; in series [5], 22 min; in series [6], 19.4 min. The LC retention time was 20 min in series [7]; 21.6 min in series [8]; 17.2 min in [9]; 21.1 min in [10]; 18.5 min in [11]; 21.6 min in series [12]. Further, the LC retention time in series [13] was 21.6 min; in series [14] it was 21.6 min; in series [15] it was 18.1 min.

For the compound `CC(=O)OCC(=O)C1CCC2C3CCC4=CC(=O)CCC4(C)C3CCC12C` (configuration not stated) [DEOXYCORTICOSTERONE ACETATE], the LC retention time in series [1] was 20.4 min; in series [2], 20.8 min; in [3] it was 25.2 min; in series [4], 22.4 min; in series [5] it was 26.3 min; in [6], 23.8 min. In addition, the LC retention time in [7] was 24.4 min; in series [8] it was 25.4 min; in series [9], 21.1 min; in series [10] it was 24.5 min; in series [11] it was 22.4 min; in series [12] it was 25.3 min. For the same compound, the figures for the LC retention time in series [13], in series [14] and in series [15] were 25.3 min, 25.3 min and 21.6 min, respectively.

As for `Cn1c(=O)c2c(ncn2C)n(C)c1=O` [CAFFEINE], the LC retention time was 10.1 min in [1]; 11.1 min in [2]; 13 min in series [3]; 11.5 min in [4]; 14.2 min in series [5]; 11.7 min in series [6]. Besides, the LC retention time in series [7] was 12.2 min; in [8], 14.7 min; in series [9], 10.2 min; in series [10] it was 14.4 min; in series [11] it was 11.6 min; in [12], 14.6 min. In addition, the values for the LC retention time in series [13], in series [14] and in series [15] were 14.6 min, 14.6 min and 11.3 min, respectively.

As to `CC1C(=O)Nc2ccccc21` (configuration not stated) [3-METHYL-2-OXINDOLE], the LC retention time in [1] is 13.3 min; in series [2], 14.2 min; in series [3], 17 min; in [4], 15.2 min; in series [5] it was 18.4 min; in series [7] it was 16.1 min. For the same compound, the LC retention time in series [8] was 18.8 min; in [16], 32.3 min; in [9] it was 13.6 min; in [10], 18.9 min; in series [11], 15.2 min; in series [12] it was 19.2 min. Besides, the LC retention time in series [13] and in [14] was 19.2 min throughout.

Take `CSc1ncnc2nc[nH]c12` [THIOPURINE S-METHYLETHER]: the LC retention time in [1] was 9.81 min; in series [2] it was 11 min; in series [3] it was 12.9 min; in [4], 11.4 min; in series [5] it was 14.4 min; in [6] it was 11.4 min. Also, the LC retention time in series [7] was 12.1 min; in series [8] it was 15.1 min; in series [9] it was 9.92 min; in series [10], 15.1 min; in series [11], 11.7 min; in series [12], 15.2 min. In addition, the LC retention time in series [13] was 15.2 min; in [14], 15.3 min; in series [15], 11.7 min.

Consider `OCCc1c[nH]c2ccccc12` [INDOLE-3-ETHANOL], for which the LC retention time in series [1] is 12.7 min; in series [2], 13.6 min; in [3], 16.2 min; in [4], 14.5 min; in [5], 17.7 min; in series [6] it was 14.6 min. The LC retention time in series [7] is 15.3 min; in series [8] it was 18 min; in series [9], 12.9 min; in [10] it was 18.2 min; in series [11], 14.5 min; in series [12], 18.5 min. The LC retention time in series [13] is 18.5 min; in series [14], 18.5 min; in [15], 14.7 min.

Regarding `C=CC1=C(C)C(C=c2[nH]c(=Cc3[nH]c(C=C4NC(=O)C(C)=C4C=C)c(C)c3CCC(=O)O)c(CCC(=O)O)c2C)=NC1=O` [BILIVERDIN], the LC retention time is 23.5 min in series [3]; 21 min in [4]; 24.7 min in series [5]; 22.6 min in [6]; 22.9 min in series [7]; 23.8 min in series [8]. The LC retention time was 19.9 min in [9]; 22.8 min in [10]; 20.9 min in series [11]; 23.5 min in series [12]; 23.5 min in [13]; 23.4 min in series [14]. The LC retention time in series [15] was 19.9 min.
